Source: patent publication US3931262A, “Hydrophilic and difficultly volatile biocidal triorganotin compounds” (priority 1972, dated 1976)

Key:
[1] = system: Alternaria tenuis CBS 10426; experiment: Microbiological test; format: cell-based
Excerpt: (§1) In the test for microbiocidal activity the compounds listed hereinbelow yielded the values indicated in the following Table: No. Compound __________________________________________________________________________ 1 (n--C4 H9)3 Sn--S--CH2 --CH2 --COO.(CH 2 --CH2 --O--n H(n~9) 2 (C6 H5)3 Sn--S--(CH2)3 --SO3.Na CH3 .vertline. 3 --Sn--S--CH2 --CH2 --COO--(CH2 --CH2 --O)n.H(n ~9) .vertline. CH3 4 (n--C4 H9)3 Sn--S--CH2 --COO.H.N(CH2 CH2 OH)3 5 (n--C4 H9)3 Sn--S--(CH2)2 --COO.H.N(CH2 CH2 OH)3 6 (n--C4 H9)3 Sn--S--CH2 --CO.N(CH2 CH2 OH)2 __________________________________________________________________________

[2] = system: Arizona paracolon 7:1.7,8; experiment: Microbiological test; format: cell-based
Excerpt: as §1

[3] = system: Aspergillus flavus CBS 12662; experiment: Microbiological test; format: cell-based
Excerpt: as §1

[4] = system: Aspergillus niger ATCC 6275; experiment: Microbiological test; format: cell-based
Excerpt: as §1

[5] = system: Bacillus subtilis NCTC 6460; experiment: Microbiological test; format: cell-based
Excerpt: as §1

[6] = system: Candida albicans CBS; experiment: Microbiological test; format: cell-based
Excerpt: as §1

[7] = system: Chaetomium globosum CBS 14851; experiment: Microbiological test; format: cell-based
Excerpt: as §1

[8] = system: Coniphora cerebella CBS; experiment: Microbiological test; format: cell-based
Excerpt: as §1

[9] = system: Corynebacterium diphteroides FUR; experiment: Microbiological test; format: cell-based
Excerpt: as §1

[10] = system: Escherichia coli NCTC 8195; experiment: Microbiological test; format: cell-based
Excerpt: as §1

[11] = system: Escherichia coli RP 45410; experiment: Microbiological test; format: cell-based
Excerpt: as §1

[12] = system: Fusarium oxysporum CBS; experiment: Microbiological test; format: cell-based
Excerpt: as §1

[13] = system: Lenzites abietina CBS; experiment: Microbiological test; format: cell-based
Excerpt: as §1

[14] = system: Mycobacterium phlei CITM 61; experiment: Microbiological test; format: cell-based
Excerpt: as §1

[15] = system: Paecilomyces varioti CBS; experiment: Microbiological test; format: cell-based
Excerpt: as §1

[16] = system: Pasteurella multocida K753; experiment: Microbiological test; format: cell-based
Excerpt: as §1

[17] = system: Penicillium expansum SMC 36; experiment: Microbiological test; format: cell-based
Excerpt: as §1

[18] = system: Penicillium funiculosum CEB 329631; experiment: Microbiological test; format: cell-based
Excerpt: as §1

[19] = system: Polystictus versicolor EMPA61; experiment: Microbiological test; format: cell-based
Excerpt: as §1

[20] = system: Poria vaporia CBS; experiment: Microbiological test; format: cell-based
Excerpt: as §1

[21] = system: Pseudomonas fluorescens NCTC 4755; experiment: Microbiological test; format: cell-based
Excerpt: as §1

[22] = system: Pullularia pullulans CBS 10767; experiment: Microbiological test; format: cell-based
Excerpt: as §1

[23] = system: Salmonella pullorum VBIZ; experiment: Microbiological test; format: cell-based
Excerpt: as §1

[24] = system: Sarcina ureae SMB 81; experiment: Microbiological test; format: cell-based
Excerpt: as §1

[25] = system: Stachybotrys atra CBS 32465; experiment: Microbiological test; format: cell-based
Excerpt: as §1

[26] = system: Staphylococcus aureus SG 511 M6; experiment: Microbiological test; format: cell-based
Excerpt: as §1

[27] = system: Staphylococcus aureus SG 511; experiment: Microbiological test; format: cell-based
Excerpt: as §1

[28] = system: Streptococcus agalactiae M100; experiment: Microbiological test; format: cell-based
Excerpt: as §1

[29] = system: Streptococcus faecalis NCTC 8619; experiment: Microbiological test; format: cell-based
Excerpt: as §1

[30] = system: Trichoderma viride CEB 3334.2; experiment: Microbiological test; format: cell-based
Excerpt: as §1

[31] = system: Trichophyton gypseum CBS; experiment: Microbiological test; format: cell-based
Excerpt: as §1

[32] = system: Salmonella cholerae-suis VBIB; format: cell-based
[33] = Solubility in water; format: physicochemical; conditions: for Solubility in water (in words): Table 1 and text
Excerpt: Solubility properties of tributyltin derivatives [formula]

[34] = system: Fusarium spec. DAP; experiment: Microbiological test; format: cell-based
Excerpt: as §1

[35] = system: Hefe DAP; experiment: Microbiological test; format: cell-based
Excerpt: as §1

[36] = system: Hefe rot DAP; experiment: Microbiological test; format: cell-based
Excerpt: as §1

[37] = system: Pilz schwarzlich DAP; experiment: Microbiological test; format: cell-based
Excerpt: as §1

[38] = system: Salmonella gallinarum VBIB; experiment: Microbiological test; format: cell-based
Excerpt: as §1

Row | Molecule | Activity range [1] [ppm] | Activity range [2] [ppm] | Activity range [3] [ppm] | Activity range [4] [ppm] | Activity range [5] [ppm] | Activity range [6] [ppm] | Activity range [7] [ppm] | Activity range [8] [ppm] | Activity range [9] [ppm] | Activity range [10] [ppm] | Activity range [11] [ppm] | Activity range [12] [ppm] | Activity range [13] [ppm] | Activity range [14] [ppm] | Activity range [15] [ppm] | Activity range [16] [ppm] | Activity range [17] [ppm] | Activity range [18] [ppm] | Activity range [19] [ppm] | Activity range [20] [ppm] | also measured
1 | CCC[CH2][Sn]([CH2]CCC)([CH2]CCC)[S]CC(=O)N(CCO)CCO [Compound 6, S-tri-n-butyl tin-thioglycolic acid diethanolamide] | ≤ 3 | > 300 | 10 | 10 | ≤ 1 | 10 | ≤ 3 | 10 | ≤ 1 | 30 | 30 | 10 | 10 | ≤ 1 | ≤ 3 | 30 | 10 | 30 | 30 | 10 | Activity range [21]: 30 ppm; Activity range [22]: 10 ppm; Activity range [23]: > 300 ppm; Activity range [24]: ≤ 1 ppm; Activity range [25]: ≤ 3 ppm; Activity range [26]: 3 ppm; Activity range [27]: 30 ppm; Activity range [28]: 3 ppm; Activity range [29]: 30 ppm; Activity range [30]: 10 ppm; Activity range [31]: 10 ppm; Activity range [32]: > 300 ppm
2 | CCC[CH2][Sn]([CH2]CCC)([CH2]CCC)[S]CC(O)CO (stereo not shown) [--CH2 --CH--CH2] |  |  |  |  |  |  |  |  |  |  |  |  |  |  |  |  |  |  |  |  | Solubility in water (in words) [33]: satisfactory
3 | CCC[CH2][Sn]([CH2]CCC)([CH2]CCC)[S]CCC(=O)[O-].OCC[NH+](CCO)CCO [Compound 5, triethanolammonium S-tri-n-butyl tin-β-mercaptopropionate] | ≤ 3 | > 300 | 10 | 10 | 10 | 10 | ≤ 3 | 10 | 10 | > 300 | > 300 | 10 | 10 | 10 | ≤ 3 | 30 | 10 | 10 | 30 | 10 | Activity range [21]: 30 ppm; Activity range [22]: 10 ppm; Activity range [23]: > 300 ppm; Activity range [24]: 30 ppm; Activity range [25]: ≤ 3 ppm; Activity range [26]: 30 ppm; Activity range [27]: 10 ppm; Activity range [28]: 30 ppm; Activity range [29]: 100 ppm; Activity range [30]: 10 ppm; Activity range [31]: 10 ppm; Activity range [32]: > 300 ppm
4 | CCC[CH2][Sn]([CH2]CCC)([CH2]CCC)[O][Sn]([CH2]CCC)([CH2]CCC)[CH2]CCC [TBTO, bis-(tri-n-butyltin)-oxide] |  |  |  |  |  |  |  |  |  |  |  |  |  |  |  |  |  |  |  |  | Solubility in water ([33]; Table 1, comparison): 20 ppm; Solubility in water (in words) [33]: poor
5 | S-tri-n-butyl-tin-β-mercaptopropionic acid polyethylene glycol ester [Compound 1] | 30 | > 300 | 30 | 30 | 10 | 30 | 10 | 10 | 10 | 10 | 10 | 30 | 10 | 3 | 30 | 10 | 30 | 30 | 100 | 100 | Activity range [34]: 30 ppm; Activity range [35]: 10 ppm; Activity range [36]: 10 ppm; Activity range [37]: 10 ppm; Activity range [21]: 10 ppm; Activity range [22]: 10 ppm; Activity range [38]: > 300 ppm; Activity range [23]: > 300 ppm; Activity range [24]: 10 ppm; Activity range [25]: 10 ppm; Activity range [26]: 10 ppm; Activity range [27]: 10 ppm; Activity range [28]: 3 ppm; Activity range [29]: 10 ppm; Activity range [30]: 100 ppm; Activity range [31]: 30 ppm; Activity range [32]: > 300 ppm
6 | CCC[CH2][Sn]([CH2]CCC)([CH2]CCC)[S]CC(=O)[O-].OCC[NH+](CCO)CCO [Compound 4, triethylammonium S-tri-n-butyl tin-thioglycolate] | 10 | > 300 | 10 | 10 | 30 | 10 | 10 | 10 | 30 | 30 | 30 | 10 | 10 | 30 | 10 | 30 | 10 | 30 | 100 | 10 | Activity range [21]: > 300 ppm; Activity range [22]: 10 ppm; Activity range [23]: > 300 ppm; Activity range [24]: 30 ppm; Activity range [25]: 10 ppm; Activity range [26]: 30 ppm; Activity range [27]: 30 ppm; Activity range [28]: 30 ppm; Activity range [29]: 30 ppm; Activity range [30]: 10 ppm; Activity range [31]: 10 ppm; Activity range [32]: > 300 ppm
